Read-outs that look alike come from different tables or passages of the source. Marks after values point to notes of the source that are not given here.
Tests used:
[1] = Plasma pharmacokinetics of capecitabine and its metabolites after oral capecitabine in CES2-modified mice; format: in vivo, mouse; settings: oral capecitabine 500 mg/kg, plasma; for AUC(0-t): read-out: AUC0-2h
Experimental: (§1) For capecitabine 2-h experiments, 6–7 female mice received oral capecitabine (500 mg/kg, 10 μL/g), and tail vein blood samples were collected at 0.125, 0.25, 0.5 and 1 h after drug administration. For the vinorelbine 4-h experiment, 6-7 male mice received vinorelbine intravenously (10 mg/kg, 5 μL/g) or orally (10 mg/kg, 10 μL/g) using a blunt-ended needle. Tail vein blood samples were collected at 0.125, 0.25, 0.5, 1 and 2 h after drug administration. […] At the last time point in each experiment (2 or 4 h), mice were anesthetized with 5% isoflurane and blood was collected by cardiac puncture. […] Plasma was isolated from the blood by centrifugation at 9000 × g for 6 min at 4 °C, and the plasma fraction was collected and stored at −30 °C until analysis.
(§2) Concentrations of capecitabine (and its metabolites) and vinorelbine (and its metabolite) in mouse plasma samples and organ homogenates were determined using two independent validated high-performance liquid chromatography-tandem mass spectrometry assays.
(§3) Pharmacokinetic parameters were calculated by non-compartmental methods using the PK solver software. […] Differences were considered statistically significant when P < 0.05. All data are presented as mean ± SD.

[2] = Tissue concentrations of capecitabine and its metabolites 2 h after oral capecitabine in CES2-modified mice; format: in vivo, mouse; settings: oral capecitabine 500 mg/kg; for concentration at 2 h: female, mouse, oral, 500 mg/kg
Experimental: as §1, §2, §3

C[C@H]1O[C@@H](n2cc(F)c(=O)[nH]c2=O)[C@H](O)[C@@H]1O [5’-DFUR]
AUC0-2h ([1]; female Ces2^–/– mice): 30434 ± 12950 ng·h/mL | AUC0-2h ratio (metabolite/capecitabine) ([1]; female Ces2^–/– mice): 1.0 ± 0.9 | Cmax ([1]; female Ces2^–/– mice): 22886 ± 11936 ng/mL | Tmax ([1]; female Ces2^–/– mice): 38.4 ± 14.4 min | AUC0-2h ([1]; female Ces2^–/–A mice): 29452 ± 10370 ng·h/mL | AUC0-2h ratio (metabolite/capecitabine) ([1]; female Ces2^–/–A mice): 1.1 ± 0.3 | Cmax ([1]; female Ces2^–/–A mice): 21100 ± 8366 ng/mL | Tmax ([1]; female Ces2^–/–A mice): 34.8 ± 12 min | AUC0-2h ([1]; female Ces2^–/–V mice): 34477 ± 13143 ng·h/mL | AUC0-2h ratio (metabolite/capecitabine) ([1]; female Ces2^–/–V mice): 2.1 ± 0.4***^###^^^ | Cmax ([1]; female Ces2^–/–V mice): 23871 ± 8673 ng/mL | Tmax ([1]; female Ces2^–/–V mice): 47.4 ± 16.2 min | AUC0-2h ([1]; female wild-type mice): 27337 ± 6291 ng·h/mL | AUC0-2h ratio (metabolite/capecitabine) ([1]; female wild-type mice): 4.7 ± 0.9 | Cmax ([1]; female wild-type mice): 21133 ± 7207 ng/mL | Tmax ([1]; female wild-type mice): 25.2 ± 7.8 min | CSI (small intestine tissue concentration) ([2]; female Ces2^–/– mice): 5099 ± 1783 ng/g | CSIC (small intestine contents concentration) ([2]; female Ces2^–/– mice): 3905 ± 2357 ng/g | Ccolon (colon concentration) ([2]; female Ces2^–/– mice): 4754 ± 3040 ng/g | Cliver (liver concentration) ([2]; female Ces2^–/– mice): 3447 ± 1643 ng/g | Colon concentration ratio (metabolite/capecitabine) ([2]; female Ces2^–/– mice): 0.34 ± 0.06 | Liver concentration ratio (metabolite/capecitabine) ([2]; female Ces2^–/– mice): 0.21 ± 0.09 | Small intestine concentration ratio (metabolite/capecitabine) ([2]; female Ces2^–/– mice): 0.32 ± 0.13 | Small intestine contents concentration ratio (metabolite/capecitabine) ([2]; female Ces2^–/– mice): 0.036 ± 0.016 | CSI (small intestine tissue concentration) ([2]; female Ces2^–/–A mice): 4632 ± 1545 ng/g | CSIC (small intestine contents concentration) ([2]; female Ces2^–/–A mice): 2689 ± 1092 ng/g | Ccolon (colon concentration) ([2]; female Ces2^–/–A mice): 3692 ± 793 ng/g | Cliver (liver concentration) ([2]; female Ces2^–/–A mice): 2628 ± 793 ng/g | Colon concentration ratio (metabolite/capecitabine) ([2]; female Ces2^–/–A mice): 0.42 ± 0.06 | Liver concentration ratio (metabolite/capecitabine) ([2]; female Ces2^–/–A mice): 0.66 ± 0.37 | Small intestine concentration ratio (metabolite/capecitabine) ([2]; female Ces2^–/–A mice): 0.33 ± 0.12 | Small intestine contents concentration ratio (metabolite/capecitabine) ([2]; female Ces2^–/–A mice): 0.035 ± 0.025 | CSI (small intestine tissue concentration) ([2]; female Ces2^–/–V mice): 3194 ± 1571 ng/g | CSIC (small intestine contents concentration) ([2]; female Ces2^–/–V mice): 2248 ± 905 ng/g | Ccolon (colon concentration) ([2]; female Ces2^–/–V mice): 5426 ± 27021.6 ng/g | Cliver (liver concentration) ([2]; female Ces2^–/–V mice): 2635 ± 1118 ng/g | Colon concentration ratio (metabolite/capecitabine) ([2]; female Ces2^–/–V mice): 1.2 ± 0.5^###^^^ | Liver concentration ratio (metabolite/capecitabine) ([2]; female Ces2^–/–V mice): 0.44 ± 0.12 | Small intestine concentration ratio (metabolite/capecitabine) ([2]; female Ces2^–/–V mice): 1.50 ± 0.56^###^^^ | Small intestine contents concentration ratio (metabolite/capecitabine) ([2]; female Ces2^–/–V mice): 0.060 ± 0.024 | CSI (small intestine tissue concentration) ([2]; female wild-type mice): 2119 ± 460 ng/g | CSIC (small intestine contents concentration) ([2]; female wild-type mice): 1759 ± 941 ng/g | Ccolon (colon concentration) ([2]; female wild-type mice): 2694 ± 755 ng/g | Cliver (liver concentration) ([2]; female wild-type mice): 1750 ± 637 ng/g | Colon concentration ratio (metabolite/capecitabine) ([2]; female wild-type mice): 1.2 ± 0.3 | Liver concentration ratio (metabolite/capecitabine) ([2]; female wild-type mice): 1.60 ± 0.96 | Small intestine concentration ratio (metabolite/capecitabine) ([2]; female wild-type mice): 1.50 ± 0.62 | Small intestine contents concentration ratio (metabolite/capecitabine) ([2]; female wild-type mice): 0.077 ± 0.032

O=c1[nH]cc(F)c(=O)[nH]1 [5-FU, 5-fluorouracil, reference compound]
AUC0-2h ratio (×10^−3) (5-FU/capecitabine) ([1]; female Ces2^–/– mice): 6.4 ± 2.1 ×10^−3 | AUC0-2h ratio (×10^−3) (5-FU/capecitabine) ([1]; female Ces2^–/–A mice): 8.0 ± 2.7 ×10^−3 | AUC0-2h ratio (×10^−3) (5-FU/capecitabine) ([1]; female Ces2^–/–V mice): 13 ± 1.6***^###^ ×10^−3 | AUC0-2h ratio (×10^−3) (5-FU/capecitabine) ([1]; female wild-type mice): 29 ± 8.1 ×10^−3 | AUC(0-t) ([1]; female, Ces2^–/– (Ces2 cluster knockout), mouse, po, 500 mg/kg, female Ces2^–/– mice): 187 ± 98 ng·h/mL | Cmax ([1]; female, Ces2^–/– (Ces2 cluster knockout), mouse, po, 500 mg/kg, female Ces2^–/– mice, read-out: Cmax): 147 ± 96 ng/mL | Tmax ([1]; female, Ces2^–/– (Ces2 cluster knockout), mouse, po, 500 mg/kg, female Ces2^–/– mice, read-out: Tmax): 55.8 ± 11.4 min | AUC(0-t) ([1]; female, mouse, po, 500 mg/kg, female Ces2^–/–A mice): 218 ± 79 ng·h/mL | Cmax ([1]; female, mouse, po, 500 mg/kg, female Ces2^–/–A mice, read-out: Cmax): 159 ± 56 ng/mL | Tmax ([1]; female, mouse, po, 500 mg/kg, female Ces2^–/–A mice, read-out: Tmax): 55.2 ± 12 min | AUC(0-t) ([1]; female, mouse, po, 500 mg/kg, female Ces2^–/–V mice): 215 ± 100 ng·h/mL | Cmax ([1]; female, mouse, po, 500 mg/kg, female Ces2^–/–V mice, read-out: Cmax): 156 ± 81 ng/mL | Tmax ([1]; female, mouse, po, 500 mg/kg, female Ces2^–/–V mice, read-out: Tmax): 51.6 ± 14.4 min | AUC(0-t) ([1]; female, mouse, po, 500 mg/kg, female wild-type mice): 168 ± 41 ng·h/mL | Cmax ([1]; female, mouse, po, 500 mg/kg, female wild-type mice, read-out: Cmax): 105 ± 36 ng/mL | Tmax ([1]; female, mouse, po, 500 mg/kg, female wild-type mice, read-out: Tmax): 30 ± 16.2 min | Cmax ([1]; female, mouse, po, 500 mg/kg, female wild-type, Ces2^–/–, Ces2^–/–A and Ces2^–/–V mice, read-out: mean Cmax, range over the mouse models): 105 to 159 ng/mL | Colon concentration ratio (metabolite/capecitabine) ([2]; female Ces2^–/– mice): 0.14 ± 0.03 | Liver concentration ratio (metabolite/capecitabine) ([2]; female Ces2^–/– mice): 0.09 ± 0.03 | Small intestine concentration ratio (metabolite/capecitabine) ([2]; female Ces2^–/– mice): 0.32 ± 0.10 | Small intestine contents Ratio (x 10^-3) (5-FU/Capecitabine) ([2]; female Ces2^–/– mice): 2.1 ± 0.7 x 10^-3 | Colon concentration ratio (metabolite/capecitabine) ([2]; female Ces2^–/–A mice): 0.17 ± 0.02 | Liver concentration ratio (metabolite/capecitabine) ([2]; female Ces2^–/–A mice): 0.52 ± 0.25 | Small intestine concentration ratio (metabolite/capecitabine) ([2]; female Ces2^–/–A mice): 0.32 ± 0.11 | Small intestine contents Ratio (x 10^-3) (5-FU/Capecitabine) ([2]; female Ces2^–/–A mice): 1.9 ± 1.6 x 10^-3 | Colon concentration ratio (metabolite/capecitabine) ([2]; female Ces2^–/–V mice): 0.50 ± 0.18^###^^^ | Liver concentration ratio (metabolite/capecitabine) ([2]; female Ces2^–/–V mice): 0.24 ± 0.07***^###^ | Small intestine concentration ratio (metabolite/capecitabine) ([2]; female Ces2^–/–V mice): 2.0 ± 0.9^###^^^ | Small intestine contents Ratio (x 10^-3) (5-FU/Capecitabine) ([2]; female Ces2^–/–V mice): 6.8 ± 3.0##^^ x 10^-3 | Colon concentration ratio (metabolite/capecitabine) ([2]; female wild-type mice): 0.53 ± 0.09 | Liver concentration ratio (metabolite/capecitabine) ([2]; female wild-type mice): 0.65 ± 0.31 | Small intestine concentration ratio (metabolite/capecitabine) ([2]; female wild-type mice): 2.1 ± 0.8 | Small intestine contents Ratio (x 10^-3) (5-FU/Capecitabine) ([2]; female wild-type mice): 5.1 ± 3.4 x 10^-3 | concentration at 2 h ([2]; Ces2^-/-, liver, female Ces2^–/– mice, read-out: Cliver (liver concentration)): 1520 ± 765 ng/g | concentration at 2 h ([2]; Ces2^-/-, small intestine, female Ces2^–/– mice, read-out: CSI (small intestine tissue concentration)): 5200 ± 2040 ng/g | concentration at 2 h ([2]; Ces2^-/-A, liver, female Ces2^–/–A mice, read-out: Cliver (liver concentration)): 2140 ± 372 ng/g | concentration at 2 h ([2]; Ces2^-/-A, small intestine tissue, female Ces2^–/–A mice, read-out: CSI (small intestine tissue concentration)): 4430 ± 1510 ng/g | concentration at 2 h ([2]; Ces2^-/-V, liver, female Ces2^–/–V mice, read-out: Cliver (liver concentration)): 1420 ± 574 ng/g | concentration at 2 h ([2]; Ces2^-/-V, small intestine, female Ces2^–/–V mice, read-out: CSI (small intestine tissue concentration)): 4120 ± 1840 ng/g | concentration at 2 h ([2]; colon, female Ces2^–/– mice, read-out: Ccolon (colon concentration)): 1830 ± 1010 ng/g | concentration at 2 h ([2]; colon, female Ces2^–/–A mice, read-out: Ccolon (colon concentration)): 1460 ± 233 ng/g | concentration at 2 h ([2]; colon, female Ces2^–/–V mice, read-out: Ccolon (colon concentration)): 2100 ± 1020 ng/g | concentration at 2 h ([2]; colon, female wild-type mice, read-out: Ccolon (colon concentration)): 1190 ± 486 ng/g | concentration at 2 h ([2]; liver, female wild-type mice, read-out: Cliver (liver concentration)): 747 ± 184 ng/g | concentration at 2 h ([2]; small intestine contents, female Ces2^–/– mice, read-out: CSIC (small intestine contents concentration)): 200 ± 109 ng/g | concentration at 2 h ([2]; small intestine contents, female Ces2^–/–A mice, read-out: CSIC (small intestine contents concentration)): 142 ± 64 ng/g | concentration at 2 h ([2]; small intestine contents, female Ces2^–/–V mice, read-out: CSIC (small intestine contents concentration)): 263 ± 149 ng/g | concentration at 2 h ([2]; small intestine contents, female wild-type mice, read-out: CSIC (small intestine contents concentration)): 125 ± 90 ng/g | concentration at 2 h ([2]; small intestine tissue, female wild-type mice, read-out: CSI (small intestine tissue concentration)): 3020 ± 835 ng/g
